Test results taken from ChEMBL document CHEMBL1201862, “PubChem BioAssay data set” (2004).
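Grown in 96-well plates, cells were treated for 48 hours with each compound at five concentrations. Insufficient inhibition: endpoint recorded as highest concentration tested. GI50 is the concentration that inhibits growth by half.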 Active and inactive are the calls of the source. Cut-off read from the data, not from the text of the source: active = GI50 up to about 1.1 µM and inactive = higher.

Assays:
Assay in all cases: NCI anticancer screen, dose series, 48 h
A549 = test system: A549
EKVX = test system: EKVX
IGROV-1 = test system: IGROV-1
MOLT-4 = test system: MOLT-4
OVCAR-4 = test system: OVCAR-4
OVCAR-8 = test system: OVCAR-8
RPMI-8226 = test system: RPMI-8226
SK-MEL-2 = test system: SK-MEL-2
SK-OV-3 = test system: SK-OV-3
U-251 = test system: U-251
UACC-257 = test system: UACC-257
UACC-62 = test system: UACC-62
SF-295 = test system: SF-295
SR = test system: SR

Measured: GI50

COC(=O)C(=O)C(C(=O)C=C(C)C)C(=O)C(=O)Nc1nc2ccc([N+](=O)[O-])cc2s1 (stereo not drawn)
inactive: A549 78.7 µM | EKVX 33.9 µM | IGROV-1 24.9 µM | MOLT-4 36.4 µM | OVCAR-4 52.5 µM | OVCAR-8 > 100 µM | RPMI-8226 28.4 µM | SK-MEL-2 49.5 µM | SK-OV-3 39.9 µM | U-251 49.8 µM | UACC-257 79.8 µM | UACC-62 38.5 µM

OCC(O)C(OC1OC(CO)C(O)C(O)C1O)c1nn(-c2ccccc2)c2nc3cc(Cl)ccc3nc12 (stereo not drawn)
inactive: EKVX > 100 µM | MOLT-4 > 100 µM | OVCAR-4 > 100 µM | OVCAR-8 > 100 µM | RPMI-8226 > 100 µM | SF-295 > 100 µM | SK-OV-3 > 100 µM | SR > 100 µM | U-251 > 100 µM | UACC-257 > 100 µM | UACC-62 > 100 µM

Nc1c(-c2ccc(Cl)cc2Cl)[n+]([O-])c2ccccc2[n+]1[O-]
inactive: A549 > 100 µM | EKVX > 100 µM | IGROV-1 > 100 µM | MOLT-4 > 100 µM | OVCAR-4 > 100 µM | OVCAR-8 > 100 µM | RPMI-8226 > 100 µM | SF-295 > 100 µM | SK-MEL-2 > 100 µM | SK-OV-3 > 100 µM | U-251 > 100 µM | UACC-257 > 100 µM | UACC-62 > 100 µM

FC(F)(F)c1cccc(/C=N/C23CC4CC(CC(C4)C2)C3)c1
inactive: A549 > 100 µM | EKVX > 100 µM | IGROV-1 > 100 µM | MOLT-4 > 100 µM | OVCAR-4 > 100 µM | OVCAR-8 > 100 µM | RPMI-8226 > 100 µM | SF-295 > 100 µM | SK-MEL-2 > 100 µM | SK-OV-3 > 100 µM | SR > 100 µM | U-251 > 100 µM | UACC-257 > 100 µM

COC(=O)C(CCC#N)(CCC#N)C(=O)OC
inactive: A549 > 100 µM | EKVX > 100 µM | IGROV-1 > 100 µM | MOLT-4 > 100 µM | OVCAR-8 > 100 µM | RPMI-8226 > 100 µM | SF-295 > 100 µM | SK-OV-3 > 100 µM | SR > 100 µM | U-251 > 100 µM | UACC-257 > 100 µM | UACC-62 > 100 µM

N#CCCn1c(S)nnc1CCC(=O)Nc1ccc(Cl)cc1Cl
inactive: A549 81.3 µM | IGROV-1 > 100 µM | MOLT-4 > 100 µM | OVCAR-4 > 100 µM | OVCAR-8 > 100 µM | RPMI-8226 > 100 µM | SF-295 > 100 µM | SK-MEL-2 > 100 µM | SK-OV-3 > 100 µM | SR 21.7 µM | U-251 > 100 µM | UACC-257 > 100 µM | UACC-62 > 100 µM

Cc1ccc(S(=O)(=O)c2c(N)n(CCN(C)C)c3nc4ccccc4nc23)cc1
inactive: A549 > 100 µM | EKVX > 100 µM | IGROV-1 > 100 µM | MOLT-4 > 100 µM | OVCAR-4 > 100 µM | OVCAR-8 > 100 µM | RPMI-8226 > 100 µM | SF-295 > 100 µM | SK-MEL-2 > 100 µM | SK-OV-3 > 100 µM | U-251 > 100 µM | UACC-257 71.9 µM

CCOC(=O)c1sc2c(sc(=O)n2-c2ccccc2)c1O
inactive: A549 > 100 µM | EKVX > 100 µM | IGROV-1 > 100 µM | MOLT-4 > 100 µM | OVCAR-4 > 100 µM | OVCAR-8 > 100 µM | SF-295 > 100 µM | SK-MEL-2 > 100 µM | SK-OV-3 > 100 µM | SR 67.6 µM | U-251 > 100 µM | UACC-257 > 100 µM | UACC-62 > 100 µM

O=c1oc(=O)c2oc3ccccc3oc1=2
inactive: A549 > 100 µM | EKVX > 100 µM | IGROV-1 > 100 µM | MOLT-4 > 100 µM | OVCAR-4 > 100 µM | OVCAR-8 > 100 µM | SF-295 > 100 µM | SK-MEL-2 > 100 µM | SK-OV-3 > 100 µM | SR > 100 µM | U-251 > 100 µM | UACC-257 > 100 µM | UACC-62 > 100 µM

O=C1/C(=C(\Nc2ccccc2)c2ccccc2)C=NN1c1ccccc1
inactive: A549 > 100 µM | EKVX > 100 µM | IGROV-1 > 100 µM | MOLT-4 29.3 µM | OVCAR-4 76.9 µM | OVCAR-8 > 100 µM | RPMI-8226 40.8 µM | SF-295 > 100 µM | SK-MEL-2 > 100 µM | SK-OV-3 > 100 µM | U-251 > 100 µM | UACC-257 > 100 µM | UACC-62 > 100 µM

C=CCNC(=O)NCCCC(NC(C)=O)C(=O)NCc1ccccc1 (stereo not drawn)
inactive: A549 > 100 µM | EKVX > 100 µM | IGROV-1 > 100 µM | MOLT-4 > 100 µM | OVCAR-4 > 100 µM | OVCAR-8 > 100 µM | RPMI-8226 > 100 µM | SF-295 > 100 µM | SK-MEL-2 > 100 µM | SK-OV-3 > 100 µM | U-251 > 100 µM | UACC-257 > 100 µM | UACC-62 > 100 µM

CC(=O)Nc1ccc(/C=C/C(=O)c2sc(C(N)=S)nc2C)cc1
inactive: A549 > 100 µM | EKVX > 100 µM | IGROV-1 > 100 µM | MOLT-4 > 100 µM | OVCAR-8 > 100 µM | RPMI-8226 > 100 µM | SF-295 > 100 µM | SK-MEL-2 > 100 µM | SK-OV-3 > 100 µM | U-251 > 100 µM | UACC-257 > 100 µM | UACC-62 > 100 µM

CC(=O)OC1(C(C)=O)CC2(c3ccccc3)OC1(c1ccccc1)c1ccccc12 (stereo not drawn)
inactive: A549 25.3 µM | EKVX 5.26 µM | IGROV-1 4.91 µM | MOLT-4 5.81 µM | OVCAR-8 34.6 µM | RPMI-8226 3.18 µM | SF-295 33.3 µM | SK-MEL-2 12.6 µM | SK-OV-3 46.9 µM | SR 6.56 µM | U-251 18.2 µM | UACC-257 4.1 µM | UACC-62 4.36 µM

O=C(O)[C@@H](NS(=O)(=O)c1ccc2ccccc2c1)c1ccccc1
inactive: IGROV-1 > 100 µM | MOLT-4 > 100 µM | OVCAR-4 > 100 µM | RPMI-8226 > 100 µM | SK-MEL-2 > 100 µM | SK-OV-3 > 100 µM | U-251 > 100 µM | UACC-257 > 100 µM | UACC-62 > 100 µM

OCC(O)COc1c(Cl)ccc(Cl)c1Cl (stereo not drawn)
inactive: A549 > 100 µM | EKVX > 100 µM | IGROV-1 > 100 µM | MOLT-4 > 100 µM | OVCAR-4 > 100 µM | OVCAR-8 > 100 µM | SF-295 > 100 µM | SK-MEL-2 > 100 µM | SK-OV-3 > 100 µM | SR > 100 µM | U-251 > 100 µM | UACC-257 > 100 µM | UACC-62 > 100 µM

CC(C)(CN1CCCCC1)C(=O)CC(SCCS(=O)(=O)O)c1ccc(Br)cc1 (stereo not drawn)
inactive: A549 1.98 µM | EKVX 2.92 µM | IGROV-1 1.97 µM | MOLT-4 2.23 µM | OVCAR-4 2.03 µM | OVCAR-8 2.38 µM | RPMI-8226 1.94 µM | SF-295 5.12 µM | SK-MEL-2 2.32 µM | SK-OV-3 2.93 µM | U-251 1.56 µM | UACC-257 3.17 µM | UACC-62 1.84 µM
